We go through 24 compounds from patent US4757076A, “Method of inhibiting aromatase” (Eli Lilly and Company, priority 1984, dated 1988).

In experiment [1] the target is T1, aromatase (Rattus norvegicus, UniProt P22443).
T1 construct: ovarian microsomes are obtained from rats treated with pregnant mares serum gonadotropin; from tissue; host or cells: ovarian microsomes of rats treated with pregnant mares serum gonadotropin
T1 sequence (P22443 1-508): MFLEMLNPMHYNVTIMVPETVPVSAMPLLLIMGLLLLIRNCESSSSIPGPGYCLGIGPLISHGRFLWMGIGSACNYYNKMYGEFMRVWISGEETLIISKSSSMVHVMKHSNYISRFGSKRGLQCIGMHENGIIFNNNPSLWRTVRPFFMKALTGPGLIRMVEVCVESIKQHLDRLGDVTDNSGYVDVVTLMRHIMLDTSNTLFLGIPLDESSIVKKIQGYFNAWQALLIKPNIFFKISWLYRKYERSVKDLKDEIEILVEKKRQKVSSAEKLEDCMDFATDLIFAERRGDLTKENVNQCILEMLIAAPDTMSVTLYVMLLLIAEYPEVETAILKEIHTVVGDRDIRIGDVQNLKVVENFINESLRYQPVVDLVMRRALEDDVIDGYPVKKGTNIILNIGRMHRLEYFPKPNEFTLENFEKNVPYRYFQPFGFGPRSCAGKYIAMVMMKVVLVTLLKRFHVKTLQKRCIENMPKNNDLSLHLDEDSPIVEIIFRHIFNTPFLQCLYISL
As to the kind of experiment: Aromatase inhibition in the rat ovarian microsome assay (modified isolated rat ovarian microsome method of Brodie et al.). The format is biochemical. The conditions noted are these: rat ovarian microsomes; substrate (androstenedione) concentration 0.1 μM.
Method: In this test system, ovarian microsomes are obtained from rats treated with pregnant mares serum gonadotropin. Test compounds are added to reaction vials containing 0.1 μM 4-androstene-3,17-dione, 100,000 dpm 1,2[^3 H]-androstenedione, the microsomes and a NADPH generating system. The concentrations of the inhibitors tested ranged between 0.005 and 10 μM.

Experiment [2] concerns estrogen synthesis (aromatization). As to the kind of experiment: Estrogen Synthesis Inhibition in Rats (uterine weight and ovarian steroid concentration). The format is in vivo, immature female Wistar rats. The conditions noted are these: 7 days; for Mean Uterine Weight: testosterone propionate-treated, significantly different from testosterone-treated control (163.88); for Mean Steroid Concentration, estriol / Mean Steroid Concentration, estradiol: ovary; for Mean Steroid Concentration, estriol: testosterone-treated control 0.68; for Mean Steroid Concentration, estradiol: testosterone-treated control 1.29.
Method: Test compounds were administered for seven days as a component of the diet. Control animals received diet without the test compound. Beginning on the fourth day of the test, all animals treated with the test compound and one half of the control animals were given a subcutaneous injection of 1.0 mg of testosterone propionate in corn oil. The remaining control animals received only an equivalent volume of corn oil.
After two hours, the animals were killed by decapitation. Uteri were isolated, trimmed of extraneous connective tissue, and weighed.
The ovarian steroids were extracted with 1.5 ml of 9:1 (v/v) toluene/ethanol to which had been added 25 to 100 mcg. each of unlabelled estradiol, estriol, and estrone, and approximately 1000 dpm of [^14 C]-estradiol. The samples were vortexed, centrifuged at 500×g for 10 minutes, and the organic phase was transferred to a conical vial. Two additional extractions were performed on the residue in the same way. The pooled organic extracts were evaporated for subsequent thin-layer chromatography.
Ovarian proteins were precipitated by the addition of 5.0 ml of ethanol to the remaining aqueous phase. After an overnight incubation at 4° C., the samples were centrifuged at 1500×g for 10 minutes. The supernatant was discarded, and the pellet was dissolved in 0.3 N potassium hydroxide.
The organic residue from each above extraction was redissolved in 9:1 (v/v) dichloromethane/methanol. The solution of each sample was applied to separate silica gel thin layer chromatography plates which contained a fluorescent indicator. The plates were developed in the first dimension with 160:38:1.5:0.5 (v/v/v/v) dichloromethane/ethyl acetate/methanol/acetic acid to within 3 cm of the top of the plate. After air-drying, the plate was developed in the second dimension with 180:19:1 (v/v/v) dichloromethane/methanol/ammonium hydroxide. The plate was air-dried and viewed under 254 nm UV light.
The visible spots were marked, and the plates were sprayed with primulin (0.001% in 4:1 v/v acetone/water) according to the method of Wright, J. Chromatography, 59, 220 (1971) which allowed for the identification of additional steroids under 365 nm UV light. The spots were scraped from the plate using a glass wool plugged Pasteur pipet attached to a vacuum line. The steroids were eluted directly into scintillation vials by the addition of 0.2 ml of dichloromethane followed by two washes each of 2.0 ml of methanol. The organic solvent was evaporated and 10.0 ml of scintillation fluid (Beckman Ready Solv-NA) was added to the vials. Samples were analyzed by liquid scintillation spectrometry. Corrections were made based on the recoveries of the [^14 C]-steroid. Steroid concentrations are expressed as femtomoles per milligram protein.

The test system of experiment [3] is DMBA-induced mammary tumors. As to the kind of experiment: DMBA-Induced Mammary Tumor Inhibition. Particulars: 300 ppm in diet (approx. 30 mg/kg/day). It counts as in vivo, female Sprague-Dawley rats. Here is the method:
Mammary tumors were produced in female Sprague-Dawley rats which were 50-60 days old by the gavage administration of 20 mg of 7,12-dimethylbenz[a]anthracene (DMBA). About six weeks after DMBA administration, the mammary glands were palpated at weekly intervals for the appearance of tumors. Whenever one or more tumors appeared and were measurable in an animal, that animal was selected for experimentation. […] Each control and test group contained 8 animals. The test compound was administered mixed into the food at a concentration of 300 ppm (corresponding to an appropriate daily dose of 30 mg/kg). The experiment included a group of control rats having tumors and were given food without the compound admixed. […] The area of each tumor was calculated by multiplying the shortest and longest diameters of the tumor. The treatment and measurement of animals continued for 5 weeks at which time the final areas of the tumors were determined.

[4] abbreviates: 30 ppm in feed (approx. 3 mg/kg/day).

The structures appear in SMILES notation. Where a name gives a salt, the structure may show the parent alone.

As to `OC(Cc1ccc(Cl)cc1)(c1ccncc1)c1ccc(Cl)cc1` (stereo not shown) [1,2-bis(4-chlorophenyl)-1-(4-pyridyl)ethanol], in experiment [1], it took 185 nM to reach a half-maximal effect (EC50). `CCCSC(c1ccc(Cl)cc1)(c1ccc(Cl)cc1)c1cccnc1` [3-[α-(4-chlorophenyl)-α-(n-propylthio)-4-chlorobenzyl]pyridine] registered a concentration giving a half-maximal response (EC50) in experiment [1] of 1750 nM. In turn, `Clc1ccc(Cc2ccncc2)cc1` [4-(4-chlorobenzyl)pyridine] returned a 50% effective concentration (EC50) in experiment [1] of 550 nM. Regarding `O=[N+]([O-])c1ccc(Cc2ccncc2)cc1` [4-(4-nitrobenzyl)pyridine], the EC50 in experiment [1] stood at 980 nM. `Clc1ccccc1C(c1ccncc1)c1ccccc1Cl` [4-bis(2-chlorophenyl)methylpyridine] displayed an EC50 in experiment [1] of 490 nM. In experiment [1], `OC(Cc1ccc(Cl)cc1Cl)(Cc1ccc(Cl)cc1Cl)c1cccnc1` [α,α-bis(2,4-dichlorobenzyl)-3-pyridinemethanol hydrochloride] yielded a concentration for a half-maximal effect (EC50) of 1850 nM. Regarding `OC(c1cccnc1)(c1ccc(Cl)cc1Cl)c1ccc(Cl)cc1Cl` [α,α-bis(2,4-dichlorophenyl)-3-pyridinemethanol hydrochloride], the EC50 in experiment [1] came to 4000 nM. Consider `OC(c1cccnc1)(c1cccc(Br)c1)c1cccc(Br)c1` [α,α-bis(3-bromophenyl)-3-pyridinemethanol], for which a half-maximal response in experiment [1] (EC50) required 2200 nM.

In experiment [1], `OC(Cc1ccc(Cl)cc1)(Cc1ccc(Cl)cc1)c1cccnc1` [α,α-bis(4-chlorobenzyl)-3-pyridinemethanol] showed an EC50 of over 5000 nM. As for `OC(c1ccc(Cl)cc1)(c1ccc(Cl)cc1)c1cccnc1` [α,α-bis(4-chlorophenyl)-3-pyridinemethanol], the “Mean Uterine Weight” value stood at 127.25 mg in experiment [2] (30 ppm in feed (approx. 3 mg/kg/day), 4 animals, p < 0.05) and 87.80 mg in experiment [2] (300 ppm in feed (approx. 30 mg/kg/day), 5 animals, p < 0.05). Moreover, the “Mean Steroid Concentration, estriol” value in experiment [2] (setting [4]) is 0.70 femtomoles per milligram of protein; in experiment [2] (300 ppm in feed (approx. 30 mg/kg/day)) it was 0.39 femtomoles per milligram of protein. Further, the “Mean Steroid Concentration, estradiol” value in experiment [2] (setting [4]) is on record as 1.04 femtomoles per milligram of protein; in experiment [2] (300 ppm in feed (approx. 30 mg/kg/day), p < 0.05), 0.36 femtomoles per milligram of protein. The “Mean Tumor Area, Finish” value in experiment [3] (after 5 weeks, control 1140) is recorded as 433 mm^2. Also, the “Mean Tumor Area, Start” value in experiment [3] (start of 5-week test, control 73.9) is on record as 108.8 mm^2. As to `CN(C)c1ccc(C(O)(c2ccncc2)c2ccc(N(C)C)cc2)cc1` [α,α-bis[4-(dimethylamino)phenyl]-4-pyridinemethanol], the EC50 in experiment [1] worked out at 3400 nM.

On to `OC(Cc1ccccc1)(Cc1ccccc1)c1cccnc1` [α,α-dibenzyl-3-pyridinemethanol], for which, in experiment [1], the EC50 came out at 2850 nM.

As for `OC(Cc1ccc(Cl)cc1Cl)(c1ccc(Cl)cc1)c1cccnc1` (stereo not drawn) [α-(2,4-dichlorobenzyl)-α-(4-chlorophenyl)-3-pyridinemethanol hydrochloride], the half-maximal effective concentration (EC50) in experiment [1] is over 5000 nM.

As for `OC(Cc1ccc(Cl)cc1Cl)(c1ccc(Cl)cc1)c1cccnc1` (stereo not drawn) [α-(2,4-dichlorobenzyl)-α-(4-chlorophenyl)-3-pyridinemethanol], in experiment [1], the concentration giving a half-maximal response (EC50) came out at 3200 nM. Turning to `OC(c1ccccc1)(c1cccnc1)c1ccc(F)cc1F` (stereo not drawn) [α-(2,4-difluorophenyl)-α-phenyl-3-pyridinemethanol], in experiment [1], the response was half-maximal at 2050 nM (EC50). Same read-out and setting: then `OC(Cc1ccc(Cl)c(Cl)c1)(c1ccc(Cl)cc1)c1cccnc1` (stereo not drawn) [α-(3,4-dichlorobenzyl)-α-(4-chlorophenyl)-3-pyridinemethanol], with 3150 nM; and `OC(c1ccc(Cl)cc1)c1cccnc1` (stereo not drawn) [α-(3-pyridyl)-4-chlorobenzyl alcohol], with 2400 nM; and `OC(Cc1ccc(Cl)cc1)(Cc1ccc(Cl)cc1Cl)c1cccnc1` (stereo not drawn) [α-(4-chlorobenzyl)-α-(2,4-dichlorobenzyl)-3-pyridinemethanol], with 2400 nM.

With `OC(Cc1ccc(Cl)cc1)(c1cccnc1)c1cccc(Cl)c1` (stereo not drawn) [α-(4-chlorobenzyl)-α-(3-chlorophenyl)-3-pyridinemethanol], in experiment [1], the half-maximal effective concentration (EC50) was determined as 3200 nM.

As for `OC(Cc1ccc(Cl)cc1)(c1ccc(Cl)cc1)c1cccnc1` (stereo not drawn) [α-(4-chlorobenzyl)-α-(4-chlorophenyl)-3-pyridinemethanol], in experiment [1], the response was half-maximal at 2900 nM (EC50). In experiment [1], `Cc1cncc(C(O)(c2ccccc2)c2ccc(Cl)cc2)c1` (stereo not drawn) [α-(4-chlorophenyl)-5-methyl-α-phenyl-3-pyridinemethanol] showed an EC50 of 4100 nM. The compound `CCCN(CCC)C(c1ccc(Cl)cc1)c1cccnc1` (stereo not drawn) [α-(4-chlorophenyl)-N,N--di(n-propyl)-3-pyridylmethylamine] showed an EC50 in experiment [1] of 150 nM. `OC(c1ccc(Cl)cc1)(c1cccnc1)c1ccc2c(c1)OCO2` (stereo not drawn) [α-(4-chlorophenyl)-α-(3,4-methylenedioxyphenyl)-3-pyridinemethanol] gave an EC50 in experiment [1] of 500 nM. In experiment [1], `Cc1ccc(C(O)(c2ccccc2)c2cccnc2)cc1` (stereo not drawn) [α-(4-methylphenyl)-α-phenyl-3-pyridinemethanol] showed an EC50 of 2400 nM.

In general, EC50 refers to the midpoint of the concentration-response curve. Read a low EC50 as higher potency in that assay.
